# Measurements taken from PubChem BioAssay (NCI).
#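 All cell lines were grown in 96-well plates and treated with compound for 48 hours. TGI is the concentration that stops growth completely.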
# Experiments:
# Test in all cases: NCI anticancer screen, dose series, 48 h
# A549 NSCLC = tested on: A549 NSCLC
# 786-0 renal = tested on: 786-0 renal
# HOP-62 NSCLC = tested on: HOP-62 NSCLC
# CCRF-CEM leukemia = tested on: CCRF-CEM leukemia
# ACHN renal = tested on: ACHN renal
# SF-539 CNS = tested on: SF-539 CNS
# HCT-116 colon = tested on: HCT-116 colon
# IGROV1 ovarian = tested on: IGROV1 ovarian
# EKVX NSCLC = tested on: EKVX NSCLC
# SF-268 CNS = tested on: SF-268 CNS
# SW-620 colon = tested on: SW-620 colon
# T-47D breast = tested on: T-47D breast
# NCI-H23 lung = tested on: NCI-H23 lung
# SF-295 CNS = tested on: SF-295 CNS
# NCI-H226 lung = tested on: NCI-H226 lung
# COLO 205 colon = tested on: COLO 205 colon
# KM12 colon = tested on: KM12 colon
# NCI-H460 lung = tested on: NCI-H460 lung
# HCT-15 colon = tested on: HCT-15 colon
# UO-31 renal = tested on: UO-31 renal
# M14 melanoma = tested on: M14 melanoma
# OVCAR-5 ovarian = tested on: OVCAR-5 ovarian
# A498 renal = tested on: A498 renal
# RPMI-8226 leukemia = tested on: RPMI-8226 leukemia
# OVCAR-4 ovarian = tested on: OVCAR-4 ovarian
# CAKI-1 renal = tested on: CAKI-1 renal
# RXF 393 renal = tested on: RXF 393 renal
# SR leukemia = tested on: SR leukemia
# SK-MEL-2 melanoma = tested on: SK-MEL-2 melanoma
# K-562 leukemia = tested on: K-562 leukemia
# LOX IMVI melanoma = tested on: LOX IMVI melanoma
# SK-MEL-5 melanoma = tested on: SK-MEL-5 melanoma
# HS 578T breast = tested on: HS 578T breast
# MDA-MB-435 = tested on: MDA-MB-435
# DU-145 prostate = tested on: DU-145 prostate
# HT29 colon = tested on: HT29 colon
# NCI/ADR-RES ovarian = tested on: NCI/ADR-RES ovarian
# TK-10 renal = tested on: TK-10 renal
# SNB-75 CNS = tested on: SNB-75 CNS
# BT-549 breast = tested on: BT-549 breast
# UACC-62 melanoma = tested on: UACC-62 melanoma
# MDA-MB-231 breast = tested on: MDA-MB-231 breast
# UACC-257 melanoma = tested on: UACC-257 melanoma
# OVCAR-8 ovarian = tested on: OVCAR-8 ovarian
# MDA-N = tested on: MDA-N
# U251 CNS = tested on: U251 CNS
# OVCAR-3 ovarian = tested on: OVCAR-3 ovarian
# PC-3 prostate = tested on: PC-3 prostate
# HOP-92 NSCLC = tested on: HOP-92 NSCLC
# MOLT-4 leukemia = tested on: MOLT-4 leukemia
# SN12C renal = tested on: SN12C renal
# HL-60(TB) leukemia = tested on: HL-60(TB) leukemia
structure (smiles),measurement,setting,value
CCN(CC)CCNc1ccc([N+](=O)[O-])c2nc3ccccc3c(N)c12,TGI,A549 NSCLC,2390 nM
same,TGI,786-0 renal,2040 nM
same,TGI,HOP-62 NSCLC,> 10000 nM
same,TGI,CCRF-CEM leukemia,2080 nM
same,TGI,ACHN renal,3750 nM
same,TGI,SF-539 CNS,1840 nM
same,TGI,HCT-116 colon,1500 nM
same,TGI,IGROV1 ovarian,> 10000 nM
same,TGI,EKVX NSCLC,2510 nM
same,TGI,SF-268 CNS,3790 nM
same,TGI,SW-620 colon,1910 nM
same,TGI,T-47D breast,> 10000 nM
same,TGI,NCI-H23 lung,2030 nM
same,TGI,SF-295 CNS,1750 nM
same,TGI,NCI-H226 lung,5620 nM
same,TGI,COLO 205 colon,1470 nM
same,TGI,KM12 colon,1410 nM
same,TGI,NCI-H460 lung,1240 nM
same,TGI,HCT-15 colon,1750 nM
same,TGI,UO-31 renal,5940 nM
same,TGI,M14 melanoma,1670 nM
same,TGI,OVCAR-5 ovarian,5260 nM
same,TGI,A498 renal,2910 nM
same,TGI,RPMI-8226 leukemia,6180 nM
same,TGI,OVCAR-4 ovarian,1480 nM
same,TGI,CAKI-1 renal,> 10000 nM
same,TGI,RXF 393 renal,1520 nM
same,TGI,SR leukemia,2390 nM
same,TGI,SK-MEL-2 melanoma,955 nM
same,TGI,K-562 leukemia,1750 nM
same,TGI,LOX IMVI melanoma,1610 nM
same,TGI,SK-MEL-5 melanoma,1100 nM
same,TGI,HS 578T breast,1830 nM
same,TGI,MDA-MB-435,1670 nM
same,TGI,DU-145 prostate,> 10000 nM
same,TGI,HT29 colon,2280 nM
same,TGI,NCI/ADR-RES ovarian,1940 nM
same,TGI,TK-10 renal,> 10000 nM
same,TGI,SNB-75 CNS,2390 nM
same,TGI,BT-549 breast,2380 nM
same,TGI,UACC-62 melanoma,4070 nM
same,TGI,MDA-MB-231 breast,2400 nM
same,TGI,UACC-257 melanoma,7370 nM
same,TGI,OVCAR-8 ovarian,> 10000 nM
same,TGI,MDA-N,2140 nM
same,TGI,U251 CNS,> 10000 nM
same,TGI,OVCAR-3 ovarian,5130 nM
same,TGI,PC-3 prostate,1740 nM
same,TGI,HOP-92 NSCLC,5840 nM
same,TGI,MOLT-4 leukemia,2230 nM
same,TGI,SN12C renal,> 10000 nM
same,TGI,HL-60(TB) leukemia,2110 nM
